Assay results reported in US11707503B2, “Modulators of complement activity” (Ra Pharmaceuticals, Inc., priority 2015, dated 2023).
Starred links: 1 amine or outer side, 2 acyl side, 3 side chain; linkers in the order of their positions; H or OH if unused. Positions of bridges follow the written chain, without caps; N, C: chain ends. Non-standard residues stand in square brackets, D forms with d. Residues, ends and D or L forms follow the SMILES beside them. Trp(7-aza) = N[C@@H](Cc1c[nH]c2ncccc12)C(=O)O; pXylylene = c1cc(C[*:2])ccc1C[*:1]; Phg = N[C@H](C(=O)O)c1ccccc1; NMeS = CN[C@@H](CO)C(=O)O; Nva = CCC[C@H](N)C(=O)O

What was measured:
[1] = Compound stability in human plasma; type: in vitro ADME
Protocol: Compounds were assayed for stability in human plasma under the following conditions. Human plasma was obtained from Bioreclamation (Westbury, N.Y.) and collected in sodium heparin. Plasma was adjusted to pH 7.4. DMSO stocks at 10 mM concentration were prepared for the test compounds. Aliquots of the DMSO solutions were dosed into 1 mL of plasma, which had been pre-warmed to 37° C., at a final test compound concentration of 10 μM. The vials were kept in a benchtop THERMOMIXER® (Eppendorf, Hauppauge, N.Y.) for the duration of the experiment. Aliquots (100 μL) were taken at each timepoint and added to a 96-well plate that had been pre-filled with 300 μL of an acetonitrile solution containing mixture of the internal standards (metoprolol, propranolol and warfarin each at 500 ng/mL). […] Aliquots of the supernatant were removed and analyzed by LC-HRAMS.

C5 [2] = target: T1, C5 (Homo sapiens, UniProt P01031); test: Competitive fluorescence polarization (FP) binding assay with probe R3076; design: purchased Complement Technology, Tyler, Tex
T1 sequence (P01031 678-1676 limits assumed): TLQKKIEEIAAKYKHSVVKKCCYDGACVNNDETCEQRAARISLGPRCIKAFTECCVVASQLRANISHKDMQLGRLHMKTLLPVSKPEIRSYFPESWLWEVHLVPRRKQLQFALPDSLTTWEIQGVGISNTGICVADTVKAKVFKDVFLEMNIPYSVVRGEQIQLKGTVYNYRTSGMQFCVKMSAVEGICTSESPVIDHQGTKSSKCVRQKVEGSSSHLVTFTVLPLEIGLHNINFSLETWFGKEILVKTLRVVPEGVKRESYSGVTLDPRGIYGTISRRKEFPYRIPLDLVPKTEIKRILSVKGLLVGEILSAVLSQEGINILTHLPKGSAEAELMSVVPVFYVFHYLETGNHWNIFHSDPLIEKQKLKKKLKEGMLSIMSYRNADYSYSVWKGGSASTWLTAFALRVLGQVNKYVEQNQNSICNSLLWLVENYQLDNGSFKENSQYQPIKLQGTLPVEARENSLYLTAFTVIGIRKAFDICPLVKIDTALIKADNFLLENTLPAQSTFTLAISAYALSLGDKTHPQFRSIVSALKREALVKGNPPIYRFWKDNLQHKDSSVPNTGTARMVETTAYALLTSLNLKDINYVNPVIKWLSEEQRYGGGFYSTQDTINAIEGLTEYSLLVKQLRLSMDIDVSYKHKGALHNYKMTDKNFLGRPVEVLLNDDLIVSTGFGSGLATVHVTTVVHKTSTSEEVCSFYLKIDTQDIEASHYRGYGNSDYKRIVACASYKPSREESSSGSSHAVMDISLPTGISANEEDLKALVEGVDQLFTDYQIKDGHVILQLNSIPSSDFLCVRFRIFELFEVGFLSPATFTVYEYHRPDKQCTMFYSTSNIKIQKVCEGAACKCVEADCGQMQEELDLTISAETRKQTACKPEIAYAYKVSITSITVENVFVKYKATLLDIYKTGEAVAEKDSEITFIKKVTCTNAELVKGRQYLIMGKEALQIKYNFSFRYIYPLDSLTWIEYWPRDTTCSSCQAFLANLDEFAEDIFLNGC
T1 sequence (P01031 19-673 limits assumed): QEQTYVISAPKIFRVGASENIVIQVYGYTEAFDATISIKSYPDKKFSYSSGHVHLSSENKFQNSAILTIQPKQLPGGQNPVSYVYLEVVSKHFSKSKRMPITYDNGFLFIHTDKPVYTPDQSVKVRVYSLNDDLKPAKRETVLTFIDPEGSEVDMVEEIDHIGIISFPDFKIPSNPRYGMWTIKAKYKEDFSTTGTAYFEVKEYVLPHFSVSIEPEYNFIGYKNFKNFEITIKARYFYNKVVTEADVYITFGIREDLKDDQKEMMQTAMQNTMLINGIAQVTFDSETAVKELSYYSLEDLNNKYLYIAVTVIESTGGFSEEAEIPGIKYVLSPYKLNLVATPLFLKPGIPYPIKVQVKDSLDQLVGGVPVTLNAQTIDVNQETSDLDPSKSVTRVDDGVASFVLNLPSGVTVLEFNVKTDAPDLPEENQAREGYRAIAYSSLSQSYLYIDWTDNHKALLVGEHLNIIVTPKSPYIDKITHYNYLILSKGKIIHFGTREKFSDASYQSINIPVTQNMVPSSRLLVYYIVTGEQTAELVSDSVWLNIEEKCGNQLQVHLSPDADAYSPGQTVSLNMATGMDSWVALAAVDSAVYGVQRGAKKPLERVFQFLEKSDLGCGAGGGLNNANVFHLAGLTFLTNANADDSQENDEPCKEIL
Protocol: FP was used for screening competitive polypeptide inhibitors of the C5 protein. […] The BODIPY-TMR dye attached to the C-terminal lysine of the protein and the subsequent labeled probe was purified by HPLC.
Human C5 protein was diluted to 200 nM in assay buffer, composed of TBS (EMD Millipore, Billerica, Mass.)+0.005% Triton-X (Sigma, Saint Louis, Mo.). 10 μl of assay buffer was added to all wells of a black, non-binding, 384-well assay plate (Greiner, Monroe, N.C.) and 10 μl of diluted C5 protein stock was added to experimental and designated control wells.
Probe R3076 (SEQ ID NO: 40) was diluted 1 to 10 in DMSO (Life Technologies, Grand Island, N.Y.) and 30 μl of that stock was diluted in 3 ml of assay buffer to yield a 100 nM stock. 10 μl of this working stock was then added to each well in the assay plate. The assay plate was incubated at room temperature, protected from light, for 20 minutes to allow binding to reach equilibrium.
Test articles listed in Table 7 were subsequently diluted in DMSO then assay buffer, comprising 10 2-fold dilutions and were then added to the assay plate in triplicate, rapidly. The assay plate was then incubated in the Paradigm (Molecular Devices, Sunnyvale, Calif.) plate reader for 60 minutes at 25° C.
After incubation for 60 minutes, the plate was read using the Paradigm FP protocol (Molecular Devices, Sunnyvale, Calif.) and raw polarization values were imported into Graphpad Prism.

primate C5 protein = test: Ex vivo hemolysis assay with cynomolgus plasma; type: cell-based, cynomolgus monkey
Protocol: At each time-point, the hemolytic activity was determined as an indicator of active serum complement (see FIG. 4).

[3] = Pharmacokinetic studies in rat (IV and SC); conditions: SC 30 mg/kg, combined R3152 and R3201
Excerpt: In the figure, circles represent concentrations obtained after SC dose and squares represent concentrations obtained after IV dose.
Blood samples were collected at indicated time points, processed into plasma, and analyzed for the indicated compound by LC-MS. […] Blood samples were collected at indicated time points, processed into plasma, and analyzed for the indicated compound by LC-MS.

rat C5 [4] = test: Ex vivo hemolysis assays, rat PK study; type: cell-based; conditions: rat plasma after dosing
rat C5 [5] = test: Binding to rat C5 (statement)
[6] = 3 mg/kg IV, cynomolgus monkey
C5 [7] = target: T1, C5; test: Human hemolysis assay (RBC lysis assay using complete human sera); type: cell-based; design: with complete human sera (Complement Technology, Tyler Tex.) and polypeptides; tissue Complement Technology, Tyler Tex; host or cells: complete human serum; conditions: compounds tested in in vivo studies; average IC50, assay and unit inferred
Protocol: Polypeptides listed in Table 3, as well as their optimized derivatives (see Table 4) were assessed for inhibitor activity using a red blood cell hemolysis assay. […] Human sera was rapidly thawed at 37° C. and then stored on ice until diluted into GVB++. Ten 6-fold serial dilutions of polypeptides (10 mM stock, DMSO) were performed in DMSO and then added to buffer. 50 μl of each polypeptide dilution was combined with sera and 100 μl of cells in individual wells of a 96-well tissue culture-treated clear microtitre plate (USA Scientific, Ocala, Fla.) and resuspended by pipetting. Samples were incubated at 37° C. for one hour. […] Data was fit with a log-logit formula producing a dose-response curve and IC50. As used herein, the term “IC50” refers to the half maximal inhibitory concentration, a value used to indicate the amount of the inhibitor needed to reduce a given reaction or process by half.
The human constant light chain kappa and IgG2 constant heavy chain sequences were used for the constants regions of the antibody. This antibody was expressed from human embryonic kidney cells (HEK293) and purified by Protein A affinity chromatography. […] Human sera was rapidly thawed at 37° C. and then stored on ice until diluted into GVB++. Ten 6-fold serial dilutions of each compound (10 mM stock, DMSO) were performed in DMSO and then added to buffer. 50 μl of each compound dilution was combined with sera and 100 μl of cells in individual wells of a 96-well tissue culture-treated clear microtitre plate (USA Scientific, Ocala, Fla.) and resuspended by pipetting. Samples were incubated at 37° C. for one hour. […] Data was fit with a log-logit formula producing a dose-response curve and IC50 (see FIG. 11A).

stability in human plasma in words [1]	Percent remaining at time 0 hrs ([1]; 37° C., 10 μM, 0 hrs)	competition for / affinity for C5 in words (C5 [2])	Structure (SMILES)	time after dosing at which hemolytic activity returned to normal levels (primate C5 protein; 3 mg/kg IV, plasma levels fell below 100 ng/ml)	plasma concentration with clear inhibition of complement-mediated hemolysis (primate C5 protein; ex vivo, plasma diluted 1:100, after 3 mg/kg IV)	bioavailability of dose, based on AUC [3]	inhibitory activity in ex vivo hemolysis assays (rat C5 [4])	binding to rat C5 (rat C5 [5])	average AUC∞ [6]	mean clearance rate [6]	mean terminal half-life [6]	mean volume of distribution [6]	IC50 (C5 [7])
highly stable	100%	relatively strong affinity	CCC[C@H](NC(=O)[C@@H]1CSCc2ccc(cc2)CSC[C@H](NC(=O)[C@H](CCC)NC(C)=O)C(=O)N[C@@H](c2ccccc2)C(=O)N[C@@H]([C@@H](C)O)C(=O)N[C@@H](Cc2c[nH]c3ncccc23)C(=O)N[C@@H](CCC(=O)O)C(=O)N[C@@H](Cc2ccc(O)cc2)C(=O)N(C)[C@@H](CO)C(=O)N[C@@H](Cc2c[nH]cn2)C(=O)N1)C(N)=O [Compound R3050, [pXylyl(2,10)]Ac-Nvl-C-Phg-T-azaTrp-E-Y-(N—Me)S-H-C-Nvl-NH2] (Ac-[Nva]C[Phg]T[Trp(7-aza)]EY[NMeS]HC[Nva]-NH2; linker 2-10 via pXylylene)	–	–	–	–	–	–	–	–	–	–
–	–	–	CCC[C@H](NC(=O)[C@@H](NC(=O)[C@@H]1CCCN1C(=O)[C@H](Cc1ccc(O)cc1)NC(=O)[C@H](CCC(=O)O)NC(=O)[C@H](Cc1c[nH]c2ncccc12)NC(=O)[C@H](Cc1ccc(O)cc1)NC(=O)[C@@H](NC(=O)[C@H](CC(=O)O)NC(=O)[C@@H]1CSCc2cccc(c2)CSC[C@H](NC(C)=O)C(=O)N[C@@H](C(C)C)C(=O)N[C@@H](CCC(=O)O)C(=O)N[C@@H](CCCNC(=N)N)C(=O)N[C@@H](Cc2ccccc2)C(=O)N1)C(C)(C)C)C1CCCCC1)C(N)=O [Compound R3152, [mXylyl(1,6)]Ac-C-V-E-R-F-C-D-Tbg-Y-azaTrp-E-Y-P-Chg-Nvl-NH2]	48 h	> 200 ng/mL	approximately 65%	very little inhibitory activity	do not bind	23319 ± 2120 ng·h/mL	2.15 ± 0.203 mL/min/kg	10.9 ± 0.8 h	1.49 ± 0.152 L/kg	–
–	–	–	CCC[C@H](NC(=O)[C@@H](NC(=O)[C@@H]1CCCN1C(=O)[C@H](Cc1ccc(O)cc1)NC(=O)[C@H](CCC(=O)O)NC(=O)[C@H](Cc1c[nH]c2ncccc12)NC(=O)[C@H](Cc1ccc(O)cc1)NC(=O)[C@@H](NC(=O)[C@H](CC(=O)O)NC(=O)[C@@H]1CSCc2cccc(c2)CSC[C@H](NC(C)=O)C(=O)N[C@@H](C(C)C)C(=O)N[C@@H](CCC(=O)O)C(=O)N[C@@H](CCCNC(=N)N)C(=O)N[C@@H](Cc2ccccc2)C(=O)N1)C(C)(C)C)C1CCCCC1)C(=O)O [Compound R3201, [mXylyl(1,6)]Ac-C-V-E-R-F-C-D-Tbg-Y-azaTrp-E-Y-P-Chg-Nvl]	–	–	–	–	do not bind	–	–	–	–	7.7 nM
